The assay concerns the target T1, RORγ (Homo sapiens, UniProt P51449).
T1 construct: expressed in transfected cells; host or cells: HEK 293 cells, transiently transfected
T1 sequence (P51449 269-508 limits assumed): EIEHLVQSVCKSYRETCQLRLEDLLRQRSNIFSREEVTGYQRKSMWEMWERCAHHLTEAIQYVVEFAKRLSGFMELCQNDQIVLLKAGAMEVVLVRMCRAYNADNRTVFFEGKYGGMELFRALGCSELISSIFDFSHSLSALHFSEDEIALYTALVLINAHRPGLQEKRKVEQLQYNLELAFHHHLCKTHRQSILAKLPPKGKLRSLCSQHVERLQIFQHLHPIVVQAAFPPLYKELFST
The experiment in a line: Reporter Gene Assay (RGA): nuclear receptor transactivation assay, inhibition of RORγ transactivation of a luciferase reporter in transiently transfected HEK 293 cells. It counts as cell-based. The following applies: read-out: RGA IC50. On the technique in general: In a reporter assay the amount or activity of a reporter protein is the signal.
The term IC50 denotes the concentration that gives 50% inhibition. For `CCS(=O)(=O)c1ccc(CNc2nc3cnc(-c4c(C5CC5)ncnc4C4CC4)nc3n(C3CC3)c2=O)cn1` [Example 51], the IC50 amounted to 7600 nM. As to `Cc1ncnc(C2CC2)c1-c1ncc2nc(NCc3ccc(S(C)(=N)=O)cc3)c(=O)n([C@@H](C)C3CC3)c2n1` (stereo partly shown) [Example 160], the IC50 was 285 nM. Next, `Cc1ncnc(C2CC2)c1-c1ncc2nc(NCc3ccc(S(C)(=O)=O)cn3)c(=O)n(C3CCC3)c2n1` [Example 242]: 395 nM. Consider `CC(=O)N1CCC(CNc2nc3cnc(-c4c(C)ncnc4C4CC4)nc3n([C@@H](C)C3CC3)c2=O)CC1` [Example 166], for which the IC50 was 1600 nM.

Values taken from patent publication EP3131902B1, “COMPOUNDS AS MODULATORS OF ROR GAMMA” (Boehringer Ingelheim International GmbH, priority 2014, dated 2015).
